Assay results taken from patent US20130012485A1, “ORGANIC COMPOUNDS” (priority 2006, published 2013).
pIC50: −log10 of the molar value.

What follows are compounds tested against T1, human DPP-IV (Homo sapiens, UniProt P27487) (assay: Activity assay: inhibitory activity to human DPP-IV, fluorogenic substrate H-Gly-Pro-AMC). Conditions: H-Gly-Pro-AMC 10 μM, room temperature, monitored for 1 hour.
T1 construct: Human DPP-IV consisting of amino acids 39 to 766 followed by a C-terminal Streptavidin-tag; Streptavidin-tag (C); made in house
Format: biochemical
Protocol: Various Example compounds were tested for their inhibitory activity to human DPP-IV.
Human DPP-IV consisting of amino acids 39 to 766 followed by a C-terminal Streptavidin-tag was expressed using the baculovirus system and purified to >80% purity. The enzyme was stored in 25 mM Tris buffer, pH 9.0, containing 300 mM NaCl at −80° C.
The fluorogenic substrates H-Gly-Pro-AMC was purchased from Bachem AG (Bubendorf, Switzerland). The substrate was kept as a 5 mM stock solution in DMSO at −20° C. All other chemicals were purchased from Sigma (Buchs, Switzerland).
The assay buffer for the DPP-IV reaction was 25 mM Tris/HCl, pH 7.5, containing 140 mM NaCl, 10 mM KCl and 0.05% (w/v) CHAPS.
The test compounds were dissolved in 90% DMSO/10% H2O (v/v). Serial dilutions of the compounds from 3 mM to 0.03 μM in 90% DMSO/10% H2O (v/v) followed by a 1:33.3 dilution in assay buffer was done in 96-well polypropylene plates using a CyBio Dilus 8-channel pipettor (CyBio AG, Jena, Germany) with tip change after each pipetting step. The compound solutions as well as the substrate and the enzyme solutions were transferred to the assay plates (384-well black Cliniplate; cat. no. 95040020 Labsystems Oy, Finland) by means of a CyBi-Well 96-channel pipettor (CyBio AG, Jena, Germany).
Enzyme kinetics were measured by mixing 10 μl of a 3-fold concentrated substrate solution in assay buffer (final substrate concentration was 10 μM) with 10 μl of the corresponding compound solution. The reactions were initiated by addition of 10 μl of a 3-fold concentrated solution of the enzyme in assay buffer. Final enzyme (active site) concentrations in the assay was […] for DPP-IV. Fluorescence product (AMC) formation was monitored for 1 hour at room temperature at 35 second intervals by measuring the fluorescence emission at 500 nm using an exitation wavelength of 350 nm in a TECAN Ultra fluorescence reader (TECAN, Maennedorf, Switzerland). The fluorescence in each well was excited by one flash per measurement. The Origin software package (Origin 7.5 Mircocal, Northampton, Mass., USA) was used to generate all graphs and to perform the IC50 calculations.

T1 sequence (P27487 39-766): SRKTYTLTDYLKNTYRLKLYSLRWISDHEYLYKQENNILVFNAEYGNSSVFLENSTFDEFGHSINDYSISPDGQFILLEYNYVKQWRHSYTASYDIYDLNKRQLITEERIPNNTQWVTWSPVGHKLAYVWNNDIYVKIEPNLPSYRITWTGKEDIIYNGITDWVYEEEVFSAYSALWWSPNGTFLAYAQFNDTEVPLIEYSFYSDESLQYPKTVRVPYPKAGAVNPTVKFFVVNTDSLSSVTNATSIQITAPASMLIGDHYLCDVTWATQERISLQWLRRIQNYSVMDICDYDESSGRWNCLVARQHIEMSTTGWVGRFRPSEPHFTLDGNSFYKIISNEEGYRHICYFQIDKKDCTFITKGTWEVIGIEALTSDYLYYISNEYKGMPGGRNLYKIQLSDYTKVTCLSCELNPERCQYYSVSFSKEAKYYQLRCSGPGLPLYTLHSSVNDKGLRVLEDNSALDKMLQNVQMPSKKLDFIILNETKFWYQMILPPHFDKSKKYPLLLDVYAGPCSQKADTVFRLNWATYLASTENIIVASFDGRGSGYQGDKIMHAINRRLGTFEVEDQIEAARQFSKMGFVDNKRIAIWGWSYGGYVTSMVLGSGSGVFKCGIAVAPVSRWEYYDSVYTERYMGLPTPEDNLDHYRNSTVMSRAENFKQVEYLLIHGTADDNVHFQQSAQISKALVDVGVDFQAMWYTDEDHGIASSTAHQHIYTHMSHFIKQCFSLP

| SMILES | pIC50 |
| --- | --- |
| CS(=O)(=O)c1ccc(CN[C@H]2CC[C@](CN)(c3cccc(Cl)c3)CC2)cc1 | 6.40 |
| NC[C@]1(c2cccc(Cl)c2)CC[C@H](n2nc(-c3cnn(Cc4ccccc4)c3)ccc2=O)CC1 | 6.30 |
| Cc1ccnc([C@]2(CN)CC[C@@H](N3CCn4c(nnc4C(F)(F)F)C3)CC2)c1 | 6.60 |
| CC1CC(=O)N([C@]2(CN)CC[C@@H](N3CCn4c(nnc4C(F)(F)F)C3)CC2)C1 (stereo partly drawn) | 6.07 |
| NCC1(c2cccc(Cl)c2)CCC(Oc2ccc(Br)cn2)CC1 (stereo not drawn) | 6.70 |
| NC[C@]1(c2cccc(Cl)c2)CC[C@H](N(Cc2ccn[nH]2)C(=O)c2cccnc2)CC1 | 6.35 |

The next lines start with the values.

| pIC50 | SMILES |
| --- | --- |
| 6.07 | Cc1n[nH]c(C)c1CCn1cc(-c2ccc(=O)n([C@H]3CC[C@](CN)(c4cccc(Cl)c4)CC3)n2)nn1 |
| 7.00 | CCOC(=O)N1CCC(N2CC(=O)N([C@H]3CC[C@](CN)(c4cccc(Cl)c4)CC3)CC2=O)CC1 |
| 4.93 | Cc1nc(=O)c2c([nH]1)CCC(CN)(c1cccc(Cl)c1)C2 (stereo not drawn) |
| 7.30 | Cn1ccc2cc(C(=O)N[C@H]3CC[C@](CN)(c4cccc(Cl)c4)CC3)ccc21 |
| 6.70 | NC[C@]1(c2cccc(Cl)c2)CC[C@H](N2C(=O)OC[C@H]2Cc2ccccc2)CC1 |
| 5.30 | Cc1cccc(C2(CN)CCC(N3CCn4c(nnc4C(F)(F)F)C3)C2)c1 (stereo not drawn) |
